Laboratory results taken from patent US5877030A, “Process for creating molecular diversity and novel protease inhibitors produced thereby” (priority 1995, dated 1999).

What was measured:
[1] = rat model; Sobajima et al.; cited from earlier work
thrombin = assay: Specificity against other proteases such as thrombin (initial experiments); assay type: biochemical
trypsin [2] = molecular target: T1, trypsin (Bos taurus, UniProt P00760); assay: Ki determination on trypsin (BAPA substrate, Michaelis-Menten / reciprocal plots); assay type: biochemical; details: for Ki: preliminary investigations
T1 sequence (P00760 24-246): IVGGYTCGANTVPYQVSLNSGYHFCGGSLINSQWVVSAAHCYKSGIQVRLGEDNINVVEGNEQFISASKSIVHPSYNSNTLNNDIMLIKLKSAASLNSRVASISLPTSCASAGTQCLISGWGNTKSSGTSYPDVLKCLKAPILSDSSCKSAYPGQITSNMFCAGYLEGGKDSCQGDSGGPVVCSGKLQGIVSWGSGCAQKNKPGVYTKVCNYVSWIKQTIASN
Experimental: The rate of the trypsin catalyzed reaction was determined by monitoring the increase in absorbance at 410 nm over time. In all measurements 5% (v/v) of dimethylsulfoxide (DMSO) was added to solubilize the libraries. For a typical assay, 50 μL of a library solution in DMSO and 10 μL of the trypsin stock solution (2.5 mg trypsin in 25 mL 0.001M HCl) were added to 5 mL of buffer (0.5M Tris-HCl, 0.16M CaCl21 pH 8.2) at 25° C. In regard to FIG. 19, the library solutions used for Charts A and B contained 2.5 mg in 50 μL DMSO; the library solution for Chart C contained 1 mg in 50 AL DMSO and the library solution for Chart D contained 0.5 mg in 50 μL DMSO.
After incubating for 10 min., the cloudy mixture was centrifuged, 0.4 mL of the clear supernatant was removed and diluted with 400 μL of buffer in a disposable 1.5 mL UV cuvette. Then, 50 μL of the BAPA (defined below) stock solution (50 mg BAPA in 5 mL DMSO) was added and the increase in absorbance at 410 nm was monitored. The trypsin activity was compared to a reference cuvette without added library material (B).
Methods for determining the Ki of an enzyme inhibitor would be known to those of ordinary skill in the art. (See also "Enzyme Kinetics & Behavior, Analysis of Rapid Equilibrium, and Steady State Enzyme Systems", ed. Segel, John Wiley & Sons, Inc., N.Y., N.Y. (1993), the contents of which are incorporated herein by reference.) A summary of the procedure used to obtain the Ki value for compound of Formula V.

trypsin [3] = molecular target: T1, trypsin; assay: Trypsin inhibitor assay (trypsin-catalyzed hydrolysis of BAPA, absorbance at 410 nm), iterative screening of libraries; assay type: biochemical; details: comparison in words
Experimental: Each sub-library 1A-1F was tested for its ability to inhibit trypsin activity and the percent trypsin activity was correlated to the specific tool molecule group (see Table 3) that had been omitted during synthesis of the sub-library being assayed.

SMILES | treatment of severe acute pancreatitis [1] | interference with other proteases, such as thrombin (thrombin) | mode of inhibition of trypsin (trypsin [2]; 1/velocity vs. 1/(substrate concentration), five inhibitor concentrations 1×10^-6 M to 1×10^-4 M) | Ki (trypsin [2]; 'in the 10 μM range') [µM] | Ki (trypsin [2]; trypsin 7.4×10^-8 M, BAPA 2×10^-4 M to 7×10^-3 M, inhibitor 1×10^-6 M to 1×10^-4 M) [µM] | activity relative to structural isomer Formula VI (trypsin [3])
CS(=O)(=O)O.N=C(N)Nc1ccc(C(=O)Oc2ccc(SCCN3C(=O)CCC3=O)cc2)cc1 [4-(2-succinimidoethylthio)-phenyl 4-guanidinobenzoate methane sulfonate] | treating severe acute pancreatitis | – | – | – | – | –
CC[C@H](C)[C@H](NC(=O)c1cc(C(=O)N2CCC[C@H]2C(=O)O)cc2c1Oc1c(C(=O)N[C@@H](CCCCN)C(=O)OC)cc(C(=O)N[C@H](C(=O)O)C(C)C)cc1C2(C)C)C(=O)O [Formula V] | – | does not interfere with other proteases, such as thrombin | competitive inhibitor of trypsin | ~10 | ~9 | significantly more active than its structural isomer Formula VI
